Results published in patent US20220304348A1, “TRITERPENE GLUCURONIDES AND THEIR USE AS FLAVOR MODIFIERS” (Firmenich SA, priority 2019, published 2022).

Experiment: Sweetness enhancement taste panel (sweetness and licorice taste ratings of 5% sucrose solutions)
Format: in vivo, human
Details: taste panel rating on a scale from 0 to 10; compound at 50 ppm in 5% sucrose solution in Henniez water; no flavor modifier = 5.0
Protocol: A test compounds were tested for its sweetness enhancement of a 5% (w/w) aqueous solution of sucrose. Taste panelists were asked to taste the following 5% sucrose solutions in Henniez water and rate their sweetness on a scale from 0 to 10, and to rate the presence of any licorice taste in the sample on a scale from 0 to 10.

CC1(C)[C@@H](O[C@@H]2O[C@H](C(=O)O)[C@@H](O)[C@H](O)[C@H]2O)CC[C@]2(C)[C@H]3C(=O)C=C4[C@@H]5C[C@@](C)(C(=O)O)CC[C@]5(C)CC[C@@]4(C)[C@]3(C)CC[C@@H]12 [Compound 108, β-Glycyrrhizin Monoglucuronate]
Sweetness (0-10): 5.8
